Test results: BindingDB's records for doi:10.1124/jpet.104.077339 (Section of Pharmacology, 2005)
“And” between values parts separate entries of the source, which are not always exact repeats. Equal entries are not always repeated.

Key:
[1] = molecular target: Delta-type opioid receptor (Homo sapiens, UniProt P41143)
Nociceptin receptor [2] = molecular target: Nociceptin receptor (Homo sapiens, UniProt P41146)
Nociceptin receptor [3] = molecular target: Nociceptin receptor (Mus musculus, UniProt P35377)
[4] = molecular target: Kappa-type opioid receptor (Homo sapiens, UniProt P41145)
Nociceptin receptor [5] = molecular target: Nociceptin receptor (Rattus norvegicus, UniProt P35370)
Mu-type opioid receptor = Mu-type opioid receptor (Homo sapiens, UniProt P35372)
[6] = molecular target: Nociceptin receptor (Cavia porcellus)

Nociceptin receptor (Homo sapiens, UniProt P41146), sequence (P41146 whole entry): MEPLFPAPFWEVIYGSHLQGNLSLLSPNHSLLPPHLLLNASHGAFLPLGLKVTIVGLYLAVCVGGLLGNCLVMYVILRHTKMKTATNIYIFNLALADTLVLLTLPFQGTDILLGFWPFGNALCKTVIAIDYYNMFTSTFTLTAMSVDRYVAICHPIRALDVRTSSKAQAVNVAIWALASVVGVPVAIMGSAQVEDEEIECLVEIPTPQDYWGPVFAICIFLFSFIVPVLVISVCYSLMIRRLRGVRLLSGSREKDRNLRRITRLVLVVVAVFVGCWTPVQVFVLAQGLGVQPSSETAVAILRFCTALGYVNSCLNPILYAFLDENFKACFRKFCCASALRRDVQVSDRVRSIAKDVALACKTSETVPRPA
Nociceptin receptor (Mus musculus, UniProt P35377), sequence (P35377 whole entry): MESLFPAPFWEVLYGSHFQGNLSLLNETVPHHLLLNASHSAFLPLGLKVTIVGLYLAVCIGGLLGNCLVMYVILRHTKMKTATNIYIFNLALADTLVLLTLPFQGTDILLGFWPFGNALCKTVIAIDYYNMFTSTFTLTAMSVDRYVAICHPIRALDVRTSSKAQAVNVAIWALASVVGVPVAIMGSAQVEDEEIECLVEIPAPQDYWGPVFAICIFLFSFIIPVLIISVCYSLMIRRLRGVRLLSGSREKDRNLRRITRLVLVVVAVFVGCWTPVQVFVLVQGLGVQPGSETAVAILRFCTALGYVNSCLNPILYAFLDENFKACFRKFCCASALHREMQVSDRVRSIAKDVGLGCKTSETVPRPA
Kappa-type opioid receptor, sequence (P41145 whole entry): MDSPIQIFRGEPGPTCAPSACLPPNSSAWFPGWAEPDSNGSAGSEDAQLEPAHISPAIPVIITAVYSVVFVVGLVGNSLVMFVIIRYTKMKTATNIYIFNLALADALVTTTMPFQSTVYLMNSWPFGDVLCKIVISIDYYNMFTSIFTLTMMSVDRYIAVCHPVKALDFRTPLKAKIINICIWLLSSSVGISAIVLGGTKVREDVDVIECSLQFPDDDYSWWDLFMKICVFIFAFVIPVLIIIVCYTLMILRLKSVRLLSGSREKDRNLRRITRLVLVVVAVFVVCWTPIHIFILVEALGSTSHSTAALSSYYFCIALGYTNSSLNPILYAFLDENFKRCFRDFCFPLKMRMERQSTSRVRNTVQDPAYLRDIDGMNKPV
Nociceptin receptor (Rattus norvegicus, UniProt P35370), sequence (P35370 whole entry): as the sequence (P35377 whole entry) above, with F9Y, A335S counted along it
Delta-type opioid receptor, sequence (P41143 whole entry): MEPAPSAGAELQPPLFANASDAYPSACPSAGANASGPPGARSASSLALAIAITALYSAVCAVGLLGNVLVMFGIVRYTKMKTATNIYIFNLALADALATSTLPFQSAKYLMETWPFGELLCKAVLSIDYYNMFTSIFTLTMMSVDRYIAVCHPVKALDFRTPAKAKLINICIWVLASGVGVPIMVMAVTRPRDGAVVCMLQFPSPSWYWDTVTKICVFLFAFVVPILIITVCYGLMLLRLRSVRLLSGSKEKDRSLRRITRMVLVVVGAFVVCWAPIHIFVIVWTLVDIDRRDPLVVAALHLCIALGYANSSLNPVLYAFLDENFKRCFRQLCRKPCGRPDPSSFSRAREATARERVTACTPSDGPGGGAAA
Mu-type opioid receptor, sequence (P35372 whole entry): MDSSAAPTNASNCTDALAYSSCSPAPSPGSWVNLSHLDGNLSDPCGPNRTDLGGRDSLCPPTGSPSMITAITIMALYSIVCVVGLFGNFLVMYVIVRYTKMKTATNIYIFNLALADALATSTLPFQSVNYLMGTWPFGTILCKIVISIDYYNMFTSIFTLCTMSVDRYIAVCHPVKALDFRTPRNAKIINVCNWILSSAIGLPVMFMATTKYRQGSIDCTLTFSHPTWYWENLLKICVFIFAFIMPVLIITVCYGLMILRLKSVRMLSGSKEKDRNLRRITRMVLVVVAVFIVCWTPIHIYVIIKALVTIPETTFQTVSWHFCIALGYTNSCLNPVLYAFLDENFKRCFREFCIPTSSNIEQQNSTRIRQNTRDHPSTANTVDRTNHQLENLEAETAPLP

C[C@H](NC(=O)CNC(=O)[C@@H](NC(=O)[C@H](Cc1ccc(F)cc1)NC(=O)CNC(=O)CNC(=O)[C@@H](N)Cc1ccccc1)[C@@H](C)O)C(=O)N[C@@H](CCCNC(=N)N)C(=O)N[C@@H](CCCCN)C(=O)N[C@@H](CO)C(=O)N[C@@H](C)C(=O)N[C@@H](CCCNC(=N)N)C(=O)N[C@@H](CCCCN)C(=O)N[C@@H](CCCNC(=N)N)C(=O)N[C@@H](CCCCN)C(=O)N[C@@H](CC(N)=O)C(=O)N[C@@H](CCC(N)=O)C(N)=O [OFQ/N UFP-102]
Ki [1]: 380 nM
Ki (Nociceptin receptor [2]): 0.076 nM and 0.068 nM and 0.021 nM
Ki (Nociceptin receptor [3]): 0.38 nM and 0.65 nM and 0.36 nM
Ki [4]: 4.79 nM
Ki (Nociceptin receptor [5]): 2.69 nM
Ki (Mu-type opioid receptor): 70.8 nM
EC50 [6]: 0.58 nM
